Assay results from patent US20180311220A1, “TREATMENT OF CANCERS WITH ACQUIRED RESISTANCE TO KIT INHIBITORS” (Bayer HealthCare LLC, priority 2007, published 2018).

Assays:
Assay type in all cases: cell-based, murine
[1] = test system: Ba/F3 cells expressing human c-KIT with exon 11 deletion (residues 557-558); assay: Ba/F3 cell proliferation assay (CellTiter-Glo), c-KIT exon 11 deletion; conditions: BaF3, n ≥ 3, 72 h incubation, read-out: Average IC50 for c-KIT-expressing Ba/F3 cellular proliferation, Exon 11 Deletion
Protocol: (§1) The cDNA encoding full length human c-KIT with a deletion in exon 11 that removed amino acid residues 557-558 was ligated into the mammalian expression vector pClneo (Promega). […] All mutations were confirmed by DNA sequencing.
(§2) Selective pressure was applied to the transfected cells by removing IL-3 from the culture medium. After IL-independent populations, further selective pressure was applied by also growing the cells in the presence of 1 mg/mL G418. […] The stable pools were further characterized by sequencing genomic DNA to confirm the presence of the transfected c-KIT cDNA.
(§3) This assay utilizes cellular ATP as a marker for cell proliferation/viability. On day 1, Ba/F3 cells were plated in 96 well dishes (Costar 3603) at 10,000 cells per well in 10% FBS in RPMI medium with 1 mg/ml G418. […] Plates were then incubated in a 5% CO2 incubator at 37° C. for 3 days. […] The cells were then incubated on a shaker for 5 minutes at room temperature, and luminescence was measured on a Victor 5 (Perkin Elmer) spectrophotometer.
(§4) Growth inhibition was measured by comparing luminescence signal from treated vs. untreated cells in assay plates, and the IC50 analysis of cell proliferation inhibition by compounds was analyzed using Analyze 5 in-house software. The IC50 values are mean values calculated from at least three experiments.

[2] = test system: Ba/F3 cells expressing human c-KIT exon 11 deletion + V654A; assay: Ba/F3 cell proliferation assay (CellTiter-Glo), c-KIT exon 11 deletion + V654A; conditions: BaF3; Exon 11 + V654A; n ≥ 3; 72 h incubation; read-out: Average IC50 for c-KIT-expressing Ba/F3 cellular proliferation, Eson 11 + V654A
Protocol: as §1, §2, §3, §4

[3] = test system: Ba/F3 cells expressing human c-KIT exon 11 deletion + T6701; assay: Ba/F3 cell proliferation assay (CellTiter-Glo), c-KIT exon 11 deletion + T6701; conditions: BaF3; Exon 11 +T6701; n ≥ 3; 72 h incubation; read-out: Average IC50 for c-KIT-expressing Ba/F3 cellular proliferation, Exon 11 +T6701
Protocol: as §1, §2, §3, §4

[4] = test system: Ba/F3 cells expressing human c-KIT exon 11 deletion + D816G; assay: Ba/F3 cell proliferation assay (CellTiter-Glo), c-KIT exon 11 deletion + D816G; conditions: BaF3; Exon 11 + D816G; n ≥ 3; 72 h incubation; read-out: Average IC50 for c-KIT-expressing Ba/F3 cellular proliferation, Exon 11 + D816G
Protocol: as §1, §2, §3, §4

[5] = test system: Ba/F3 cells expressing human c-KIT exon 11 deletion + N822K; assay: Ba/F3 cell proliferation assay (CellTiter-Glo), c-KIT exon 11 deletion + N822K; conditions: BaF3; Exon 11 + N822K; n ≥ 3; 72 h incubation; read-out: Average IC50 for c-KIT-expressing Ba/F3 cellular proliferation, Exon 11 + N822K
Protocol: as §1, §2, §3, §4

[6] = test system: Ba/F3 cells expressing human c-KIT exon 11 deletion + Y823D; assay: Ba/F3 cell proliferation assay (CellTiter-Glo), c-KIT exon 11 deletion + Y823D; conditions: BaF3; Exon 11 + Y823D; n ≥ 3; 72 h incubation; read-out: Average IC50 for c-KIT-expressing Ba/F3 cellular proliferation, Exon 11 + Y823D
Protocol: as §1, §2, §3, §4

IC50 [1]: 7 nM | IC50 [2]: 38 nM | IC50 [3]: 19 nM | IC50 [4]: 14 nM | IC50 [5]: 12 nM | IC50 [6]: 129 nM
SMILES: CNC(=O)c1cc(Oc2ccc(NC(=O)Nc3ccc(Cl)c(C(F)(F)F)c3)c(F)c2)ccn1 [DAST, 4{4-[3-(4-chloro-3-trifluoromethylphenyl)-ureido]-3-fluorophenoxy}-pyridine-2-carboxylic acid methylamide]
